The values that follow come from PMC7497253, “Structure‐Based Macrocyclization of Substrate Analogue NS2B‐NS3 Protease Inhibitors of Zika, West Nile and Dengue viruses” (Chemmedchem, 2020).

Holding throughout (type): biochemical
In one assay the target is T1, trypsin (Bos taurus, UniProt P00760).
T1 construct: gene PRSS1
T1 sequence (P00760 24-246): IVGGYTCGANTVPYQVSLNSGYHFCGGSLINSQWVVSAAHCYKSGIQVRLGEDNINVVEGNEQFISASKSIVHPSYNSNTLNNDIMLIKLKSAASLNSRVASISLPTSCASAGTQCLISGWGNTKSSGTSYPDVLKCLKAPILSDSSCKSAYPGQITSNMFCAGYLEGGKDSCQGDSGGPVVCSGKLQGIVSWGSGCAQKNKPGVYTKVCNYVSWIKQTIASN
Description: Enzyme kinetic assay with trypsin (selectivity). As to conditions: at concentrations of 75 μM. An excerpt:
(§1) Some of the latter group, like the peptidic arginal8 or boroarginine derivatives,10 form a reversible covalent bond with their target. […] With respect to virus replication, mutations in allosteric binding pockets are better tolerated than changes in the active site, which often lead to a more severe influence on the fitness of the virus.31, 32 This advantage justifies further efforts for the improvement of active site inhibitors. One strategy to reduce the conformational freedom of peptide derivatives and predisposing them to a favorable orientation for binding is their macrocyclization, leading to improved potency, selectivity and stability.33 By this approach, we have prepared numerous noncovalent inhibitors with excellent selectivity for the tested flavivirins, when compared with trypsin‐like serine proteases or basic proprotein convertases. […] The deep S1 pocket of trypsin34 and furin35 cannot tolerate a branching close to the basic P1 guanidine anchor, which is well accepted by the flavivirins due to their flat and open S1 site. In contrast to some of our previously described linear C‐terminal elongated derivatives,18, 36 the cyclic derivatives are fully stable when incubated with bZiPro, as analyzed by mass spectrometry (Figure S3). […]

In assay [1] the target is T2, WNV NS2B-NS3 protease (WNV-Pro) (West Nile virus, UniProt P06935).
T2 construct: NS3 has to form a complex with its cofactor NS2B to achieve proteolytic activity; The viral protease consists of the N‐terminal third of the nonstructural protein NS3
Description: Enzyme kinetics with the covalent WNV NS2B-NS3 construct, substrate Phac-Leu-Lys-Lys-Arg-AMC. How it is done:
(§2) Enzyme kinetics. Measurements with bZiPro15 and the covalent WNV NS2B‐NS3 construct^10 were performed at room temperature in black 96 well plates using a Fluoroskan Ascent® plate reader (Thermo Fisher Scientific, Vantaa, Finland) with λ ex at 355 nm and λ em at 460 nm. Each well contained 125 μL inhibitor dissolved in buffer (for bZiPro: 20 mM Tris×HCl pH 8.5, 2 mM DTT, 10 w/v glycerol and 0.01 w/v Triton X‐100;18 for WNV protease: 100 mM Tris×HCl pH 8.5, containing 32 w/v glycerol and 0.01 w/v Triton X‐10012) and 50 μL substrate Phac‐Leu‐Lys‐Lys‐Arg‐AMC12 (40 μM for bZiPro (10 μM in assay, K M=1.4 μM) and 400 μM for the WNV protease (100 μM in assay, K M=53 μM)). The measurements were started by addition of 25 μL enzyme solution (16 nM for bZiPro (2.0 nM in assay), and 64 nM for the WNV protease (8.0 nM in assay)). Data points were collected each 15 s over a period of 10 min using eight different inhibitor concentrations. […] The K i values and their standard deviation were obtained from at least three independent measurements.(1) vi=Vmax×[S]/KM1+[I]/Ki+[S]

The next assay deals with furin (Homo sapiens, UniProt P09958). Kind of assay: Enzyme kinetic assay with furin (selectivity). The note with it: at concentrations of 75 μM.
Text: as §1

The target of assay [2] is T3, bD4Pro (unlinked binary dengue-4 virus NS2B-NS3 protease) (Dengue virus type 4, UniProt Q2YHF2).
T3 construct: The viral protease consists of the N‐terminal third of the nonstructural protein NS3; NS3 has to form a complex with its cofactor NS2B to achieve proteolytic activity; His6 (cleaved yes); made in house
T3 sequence (Q2YHF2 1475-1652 limits assumed): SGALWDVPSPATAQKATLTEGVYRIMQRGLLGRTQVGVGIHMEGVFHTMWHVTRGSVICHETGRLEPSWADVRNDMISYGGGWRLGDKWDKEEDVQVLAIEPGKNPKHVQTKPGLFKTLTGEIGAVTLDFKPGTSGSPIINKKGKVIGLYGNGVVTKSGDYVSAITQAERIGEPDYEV
T3 sequence (Q2YHF2 1397-1436 limits assumed): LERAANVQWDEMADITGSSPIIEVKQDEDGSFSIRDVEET
Kind of assay: Enzyme kinetics with bD4Pro, substrate Benzoyl-Nle-Lys-Arg-Arg-AMC. The protocol: Measurements with the dengue 4 virus protease construct (bD4Pro; expressed and purified by a similar methodology as described for bZiPro15 with slight modification of using Tobacco Etch Virus (TEV) protease instead of thrombin for His6‐tag cleavage) were performed in a Cytation 3 Mulitmode plate reader with λ ex at 380 nm and λ em at 460 nm. Assays were carried out as triplicate at 37 °C. Before measurement, the protease (final assay concentration 3 nM) was preincubated with varying concentrations of inhibitors in assay buffer (20 mM Tris pH 8.5, 10 % glycerol, 0.01 % Triton X‐100) for 1 h at room temperature in Corning black clear bottom 96‐well plates. The reaction was started by addition of the substrate Benzoyl‐Nle‐Lys‐Arg‐Arg‐AMC (final assay concentration 50 μM, K M=48.4 μM). Fluorescent readings were recorded at 1‐minute intervals over 10 minutes. The steady‐state rates v i in presence of inhibitor were calculated from the slopes of the progress curves using Graph Pad Prism. The v i values were fitted to Equation (2) as function of the inhibitor concentration [I] providing the IC50 values, where v 0 is the rate in absence of inhibitor and s a slope factor. The obtained IC50 values were finally converted into K i values by the Cheng‐Prusoff Equation (2).(2) vi=v0/1+I/IC50^s (3) Ki=IC50/1+S/KM

In assay [3] the target is T4, bZiPro (unlinked binary Zika virus NS2B-NS3 protease) (Zika virus, UniProt A0A024B7W1).
T4 construct: The viral protease consists of the N‐terminal third of the nonstructural protein NS3; the NS2B construct ends at Glu96; His6 (cleaved yes); made in house
Description: Enzyme kinetics with bZiPro, fluorogenic substrate Phac-Leu-Lys-Lys-Arg-AMC. As to conditions: for Ki: mean±SD of at least three independent measurements, substrate 10 μM in assay, room temperature, pH 8.5. The protocol: as §2
The constants K M and V max were obtained from independent measurements with six different substrate concentrations in absence of inhibitor. For inhibitor 10 with bZiPro, additional measurements at three substrate concentrations (10, 5, and 2.5 μM in assay) were performed to obtain the Dixon plot shown in Figure 4.

The structures appear in SMILES notation. Like-named read-outs stand apart in the source and are kept apart here. Starred links: 1 amine or outer side, 2 acyl side, 3 side chain; linkers in the order of their positions; H or OH if unused. Non-standard residues stand in square brackets, D forms with d. Residues, ends and D or L forms follow the SMILES beside them. dεLys(Nα-amidino) = N=C(N)N[C@H](CCCCN[*:1])C(=O)[*:2]; βAla = NCCC(=O)O

T2 sequence (P06935 1424-1463): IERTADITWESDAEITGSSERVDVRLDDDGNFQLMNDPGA
T2 sequence (P06935 1502-1679): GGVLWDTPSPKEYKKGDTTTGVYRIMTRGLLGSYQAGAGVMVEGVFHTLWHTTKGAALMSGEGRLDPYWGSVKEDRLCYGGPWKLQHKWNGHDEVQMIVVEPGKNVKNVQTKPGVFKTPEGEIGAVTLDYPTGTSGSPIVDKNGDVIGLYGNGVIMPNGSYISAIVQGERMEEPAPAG
T4 sequence (A0A024B7W1 1503-1680 limits assumed): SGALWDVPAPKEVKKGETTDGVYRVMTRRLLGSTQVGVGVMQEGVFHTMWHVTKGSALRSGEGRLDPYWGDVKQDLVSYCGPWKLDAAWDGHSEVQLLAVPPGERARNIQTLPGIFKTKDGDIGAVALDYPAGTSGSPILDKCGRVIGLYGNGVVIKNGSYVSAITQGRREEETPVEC
T4 sequence (A0A024B7W1 1425-1464 limits assumed): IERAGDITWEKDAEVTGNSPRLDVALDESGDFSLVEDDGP
Chain of furin (P09958 108-794): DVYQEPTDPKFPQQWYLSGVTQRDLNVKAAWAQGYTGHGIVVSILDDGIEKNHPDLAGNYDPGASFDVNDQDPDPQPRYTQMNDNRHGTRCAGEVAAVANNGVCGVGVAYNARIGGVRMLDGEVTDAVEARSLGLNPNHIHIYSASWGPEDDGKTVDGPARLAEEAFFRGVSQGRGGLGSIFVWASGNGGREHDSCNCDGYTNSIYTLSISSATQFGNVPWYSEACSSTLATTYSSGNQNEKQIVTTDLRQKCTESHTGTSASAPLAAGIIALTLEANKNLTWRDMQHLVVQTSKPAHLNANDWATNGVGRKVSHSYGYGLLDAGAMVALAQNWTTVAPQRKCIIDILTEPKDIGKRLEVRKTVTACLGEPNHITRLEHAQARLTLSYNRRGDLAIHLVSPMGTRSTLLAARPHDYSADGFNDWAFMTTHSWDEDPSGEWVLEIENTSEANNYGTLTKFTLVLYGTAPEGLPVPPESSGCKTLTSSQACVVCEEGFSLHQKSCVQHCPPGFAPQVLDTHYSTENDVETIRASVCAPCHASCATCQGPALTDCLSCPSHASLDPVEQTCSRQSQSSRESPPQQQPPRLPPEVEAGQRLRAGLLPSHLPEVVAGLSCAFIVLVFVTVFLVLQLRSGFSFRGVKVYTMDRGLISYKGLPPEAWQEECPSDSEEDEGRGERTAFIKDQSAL

With `N=C(N)N[C@@H]1CCCCNC(=O)[C@H](CCCCN)NC(=O)[C@H](CCCCN)NC(=O)Cc2cccc(c2)CNC(=O)CNC1=O` [Inhibitor 10, 1‐((8R,15S,18S)‐15,18‐bis(4‐aminobutyl)‐4,7,14,17,20‐pentaoxo‐3,6,13,16,19‐pentaaza‐1(1,3)‐benzenacyclohenicosaphane‐8‐yl)guanidine], the inhibition of trypsin result on trypsin is “could not detect any inhibition”. Moreover, the Ki in assay [1] came to 138 ± 31 nM; in assay [2], 142 ± 10 nM; in assay [3] (K i bZiPro), 1.57 ± 0.32 nM. In addition, on furin, the inhibition of furin result is recorded as “could not detect any inhibition”. Further, the “binding mode from Dixon plot of bZiPro inhibition” value in assay [3] (substrate 10, 5 and 2.5 μM, bZiPro 1.96 nM in assay) was “competitive reversible”.

On to `N=C(N)N[C@@H]1CCCCNC(=O)[C@H](CCCCN)NC(=O)[C@H](CCCCN)NC(=O)Cc2cccc(c2)NC(=O)CNC1=O` [Inhibitor 11], for which the inhibition of trypsin entry at trypsin is reported as “could not detect any inhibition”. The Ki was found to be 47600 ± 2500 nM in assay [1], 60600 ± 5300 nM in assay [2] and 1420 ± 270 nM in assay [3] (K i bZiPro). Further, the inhibition of furin entry against furin is listed as “could not detect any inhibition”.

As to `N=C(N)N[C@@H]1CCCCNC(=O)[C@H](CCCCN)NC(=O)[C@H](CCCCN)NC(=O)CNC(=O)CNC(=O)CCNC1=O` [Inhibitor 28] (cyclo([βAla]GGKK[dεLys(Nα-amidino)])), the Ki was determined as 974 ± 134 nM in assay [1] (mean±SD of at least three independent measurements, substrate 100 μM in assay, room temperature, pH 8.5, read-out: K i WNV-Pro); 2720 ± 190 nM in assay [2] (mean±SD of at least three independent measurements, 37 °C, IC50 converted into K i by Cheng-Prusoff, read-out: K i bD4Pro); 12.8 ± 0.5 nM in assay [3] (read-out: K i bZiPro).

For `N=C(N)N[C@H](CCCCNC(=O)[C@H](CCCCN)NC(=O)[C@H](CCCCN)NC(=O)Cc1cccc(CNC(=O)CN)c1)C(=O)O` [Inhibitor 29], the Ki in assay [1] was 51600 ± 700 nM; in assay [2] it was 75000 ± 3400 nM; in assay [3] (K i bZiPro) it was 2040 ± 600 nM. Also, the “times less potent inhibitor of bZiPro than analogue 10” value in assay [3] (compared with cyclic analogue 10) is recorded as “more than 1000 times”.

For `N=C(N)N[C@H](CCCCNC(=O)[C@H](CCCCN)NC(=O)[C@H](CCCCN)NC(=O)Cc1cccc(CNC(=O)CN)c1)C(N)=O` [Inhibitor 30], the results for the Ki in assay [1], in assay [2] and in assay [3] (K i bZiPro) were 1550 ± 380 nM, 775 ± 47 nM and 13.6 ± 2.6 nM, respectively. For the same compound, the “fold improved potency compared with 29” value in assay [3] (uncharged amide analogue versus free P1 carboxyl compound 29) is reported as “more than 100 fold”.

With `CC(=O)NCc1cccc(CC(=O)N[C@@H](CCCCN)C(=O)N[C@@H](CCCCN)C(=O)NCCCC[C@@H](NC(=N)N)C(N)=O)c1` [Inhibitor 31], the Ki in assay [1] was 1480 ± 100 nM; in assay [2], 1210 ± 90 nM; in assay [3] (K i bZiPro), 9.48 ± 0.61 nM.

On to `CC(=O)NCc1cccc(CC(=O)N[C@@H](CCCCN)C(=O)N[C@@H](CCCCN)C(=O)NCCCCCNC(=N)N)c1` [Inhibitor 32], for which the Ki was 4940 ± 530 nM in assay [1], 18100 ± 1200 nM in assay [2] and 88.2 ± 3.8 nM in assay [3] (K i bZiPro).
